According to PubChem BioAssay AID1259411 (Chemical Carcinogenesis Research Information System (CCRIS), 2018):
Calls of active or inactive are those of the source. The rule behind the calls is not given here.

Tested on: rodent carcinogenicity bioassays, tumor incidence
Assay: CCRIS carcinogenicity studies
In short: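 NCI-built, expert-reviewed records of carcinogenicity and related test outcomes (mutagenicity, tumor promotion/inhibition) compiled from published and report sources, historical span 1985-2011, not updated.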

## ClCOCCl
Species: HUMAN, Route: INHALATION, Tumor Site: Type of Lesion: LUNG: OAT CELL CARCINOMA
  carcinogen call: active; positive
Species: MOUSE, Strain/Sex: ICR/FEMALE, Route: DERMAL, Tumor Site: Type of Lesion: INTEGUMENTARY SYSTEM (SKIN): PAPILLOMA, SQUAMOUS CELL CARCINOMA
  carcinogen call: active; positive
Species: MOUSE, Strain/Sex: ICR/MALE,FEMALE, Route: SUBCUTANEOUS, Dose: 12.5 µL/KG IN PEANUT OIL ONCE, Tumor Site: Type of Lesion: LUNG: ADENOMA
  carcinogen call: active; positive
Species: MOUSE, Strain/Sex: ICR/MALE, Route: INHALATION, Dose: 0, 10, 100 PPB 6 HR/D, 5 D/WK FOR 6 MO (STUDY DURATION: 24 MO), Dose: 0, 10, 100 PPB 6 HR/D, 5 D/WK FOR 6 MO (STUDY DURATION: 24 MO), Tumor Site: Type of Lesion: LUNG: ADENOMA OR ADENOCARCINOMA
  carcinogen call: active; positive
Species: MOUSE, Strain/Sex: STRAIN-A, Route: INHALATION, Dose: 0.005 MG/L 6 HR/D, 5 D/WK FOR A TOTAL OF 82 D OVER 27 WK, Tumor Site: Type of Lesion: LUNG: ADENOMA
  carcinogen call: active; positive
Species: RAT, Strain/Sex: SPRAGUE-DAWLEY/FEMALE, Route: SUBCUTANEOUS, Dose: 3 MG IN 0.1 ML NUJOL 1/WK FOR 100 D THEN 1 MG 1/WK OR 3/MO FOR 200 D, Tumor Site: Type of Lesion: INJECTION SITE: FIBROSARCOMA
  carcinogen call: active; positive
Species: RAT, Strain/Sex: SPRAGUE-DAWLEY/MALE, Route: INHALATION, Dose: 0, 1, 10, 100 PPB 6 HR/D, 5 D/WK FOR 6 MO (STUDY DURATION: 19-28 MO), Dose: 0, 1, 10, 100 PPB 6 HR/D, 5 D/WK FOR 6 MO (STUDY DURATION: 19-28 MO), Tumor Site: Type of Lesion: NASAL CAVITY: ESTHESIONEUROEPITHELIOMA
  carcinogen call: active; positive
Species: RAT, Strain/Sex: SPRAGUE-DAWLEY, Route: INHALATION, Dose: 0.5 MG/M3 FOR 101 EXPOSURES, Tumor Site: Type of Lesion: LUNG: SQUAMOUS CELL CARCINOMA, NASAL CAVITY: ESTHESIONEUROEPITHELIOMA
  carcinogen call: active; positive

## O=[N+]([O-])c1ccc2nc[nH]c2c1
Species: MOUSE, Strain/Sex: B6C3F1/FEMALE, Route: ORAL, Dose: 0, 0.12, 0.24% OF DIET, Dose: 0, 0.12, 0.24% OF DIET, Tumor Site: Type of Lesion: LIVER: HEPATOCELLULAR CARCINOMA OR HEPATOCELLULAR ADENOMA
  carcinogen call: active; positive
Species: MOUSE, Strain/Sex: B6C3F1/MALE, Route: ORAL, Dose: 0, 0.12, 0.24% OF DIET, Dose: 0, 0.12, 0.24% OF DIET, Tumor Site: Type of Lesion: LIVER: HEPATOCELLULAR CARCINOMA OR HEPATOCELLULAR ADENOMA
  carcinogen call: active; positive
Species: RAT, Strain/Sex: F344/FEMALE, Route: ORAL, Dose: 0, 0.12, 0.5% OF DIET, Dose: 0, 0.12, 0.5% OF DIET
  carcinogen call: inactive; negative
Species: RAT, Strain/Sex: F344/MALE, Route: ORAL, Dose: 0, 0.12, 0.5% OF DIET, Dose: 0, 0.12, 0.5% OF DIET
  carcinogen call: inactive; negative

## CC(=O)[C@H]1CC[C@H]2[C@@H]3CCC4=CC(=O)CC[C@]4(C)[C@H]3CC[C@]12C
Species: MOUSE, Route: SUBCUTANEOUS, Tumor Site: Type of Lesion: MAMMARY GLAND, OVARIES, UTERUS, Tumor Site: Type of Lesion: MAMMARY GLAND, OVARIES, UTERUS
  carcinogen call: active; positive

## CN(C)[C@@H]1C(=O)C(C(N)=O)=C(O)[C@@]2(O)C(=O)C3=C(O)c4c(O)cccc4[C@@](C)(O)[C@H]3[C@H](O)[C@@H]12
Species: MOUSE, Strain/Sex: B6C3F1/FEMALE, Route: ORAL, Dose: 0, 6300, 12500 PPM IN DIET FOR 103 WK (STUDY DURATION: 103 WK), Dose: 0, 6300, 12500 PPM IN DIET FOR 103 WK (STUDY DURATION: 103 WK)
  carcinogen call: inactive; negative
Species: MOUSE, Strain/Sex: B6C3F1/MALE, Route: ORAL, Dose: 0, 6300, 12500 PPM IN DIET FOR 103 WK (STUDY DURATION: 103 WK), Dose: 0, 6300, 12500 PPM IN DIET FOR 103 WK (STUDY DURATION: 103 WK)
  carcinogen call: inactive; negative
Species: RAT, Strain/Sex: F344/FEMALE, Route: ORAL, Dose: 0, 25000, 50000 PPM IN DIET FOR 103 WK (STUDY DURATION: 103 WK), Dose: 0, 25000, 50000 PPM IN DIET FOR 103 WK (STUDY DURATION: 103 WK), Tumor Site: Type of Lesion: PITUITARY GLAND: ADENOMA
  carcinogen call: equivocal
Species: RAT, Strain/Sex: F344/MALE, Route: ORAL, Dose: 0, 25000, 50000 PPM IN DIET FOR 103 WK (STUDY DURATION: 103 WK), Dose: 0, 25000, 50000 PPM IN DIET FOR 103 WK (STUDY DURATION: 103 WK), Tumor Site: Type of Lesion: ADRENAL GLAND: PHEOCHROMOCYTOMA
  carcinogen call: equivocal

## CC1CN(N=O)CO1 (configuration not stated)
Species: HAMSTER, Strain/Sex: SYRIAN/MALE, Route: INTRAGASTRIC, Dose: 0, 25 MG/ML IN 0.2 ML STERILIZED WATER 1/WK FOR 24 WK (TOTAL DOSE 120 MG) (STUDY DURATION: LIFESPAN), Tumor Site: Type of Lesion: LIVER: HEPATOCELLULAR CARCINOMA, ADENOMA, HEMANGIOSARCOMA, CHOLANGIOCARCINOMA, PANCREAS: DUCTAL CARCINOMA
  carcinogen call: active; positive
Species: RAT, Strain/Sex: F344/FEMALE, Route: ORAL, Dose: 40 MG/L IN DRINKING WATER FOR 50 WK, Tumor Site: Type of Lesion: LIVER: HEPATOCELLULAR CARCINOMA, HEMANGIOENDOTHELIAL SARCOMA
  carcinogen call: active; positive

## C=C1C[C@]23C[C@@]1(O)CC[C@H]2[C@@]12C=C[C@H](O)[C@@](C)(C(=O)O1)[C@H]2[C@@H]3C(=O)O
Species: MOUSE, Strain/Sex: SWISS/FEMALE, Route: GAVAGE, Dose: 0, 3 PPM IN 0.3 ML PHYSIOLOGICAL SALINE 2/WK FOR 22 MO (STUDY DURATION: 22 MO), Tumor Site: Type of Lesion: BREAST: ADENOCARCINOMA, SKIN: SEBACEOUS ADENOMA
  carcinogen call: active; positive
Species: MOUSE, Strain/Sex: SWISS/MALE, Route: GAVAGE, Dose: 0, 3 PPM IN 0.3 ML PHYSIOLOGICAL SALINE 2/WK FOR 22 MO (STUDY DURATION: 22 MO), Tumor Site: Type of Lesion: SKIN: SEBACEOUS ADENOMA, LUNG: TUMOR
  carcinogen call: active; positive

## O=C1C=CC(=O)C(c2ccccc2)=C1
Species: MOUSE, Strain/Sex: CD-1/FEMALE, Route: DERMAL, Dose: 0, 1 MG IN DMSO 5/D WK FOR 40 WK (STUDY DURATION: 40 WK)
  carcinogen call: inactive; negative
Species: RAT, Strain/Sex: F344/FEMALE, Route: INTRAVESICULAR, Dose: 0, 1% IN 0.2 ML SALINE 2/WK FOR 5 WK (STUDY DURATION: 36 WK)
  carcinogen call: inactive; negative

## COc1ccc([C@H]2O[C@H]2C)cc1
Species: MOUSE, Strain/Sex: B6C3F1/MALE, Route: INTRAPERITONEAL, Dose: 0, 0.25, 0.5 UMOL/G BW ONCE (STUDY DURATION: 10-11 MONTHS), Dose: 0, 0.25, 0.5 UMOL/G BW ONCE (STUDY DURATION: 10-11 MONTHS), Tumor Site: Type of Lesion: LIVER: HEPATOMA
  carcinogen call: active; positive
Species: MOUSE, Strain/Sex: CD-1/FEMALE, Route: DERMAL, Dose: 0, 5 UMOL 1X/WK FOR 3 WK BEGINNING 24 HR POST FIRST TPA DOSE (2.5 UG IN 0.1 ML ACETONE), FOLLOWED BY 2.5 UG TPA IN 0.1 M, Tumor Site: Type of Lesion: SKIN: PAPILLOMA
  carcinogen call: active; positive

## P
Species: RAT, Strain/Sex: F344/FEMALE, Route: INHALATION, Dose: 0, 0.3, 1.0, 3.0 PPM 6 HR/D 5 D/WK FOR 104 WK (STUDY DURATION: 104 WK), Dose: 0, 0.3, 1.0, 3.0 PPM 6 HR/D 5 D/WK FOR 104 WK (STUDY DURATION: 104 WK)
  carcinogen call: inactive; negative
Species: RAT, Strain/Sex: F344/MALE, Route: INHALATION, Dose: 0, 0.3, 1.0, 3.0 PPM 6 HR/D 5 D/WK FOR 104 WK (STUDY DURATION: 104 WK), Dose: 0, 0.3, 1.0, 3.0 PPM 6 HR/D 5 D/WK FOR 104 WK (STUDY DURATION: 104 WK)
  carcinogen call: inactive; negative
